# Reference: article PMC7367873, “Dissecting the sequence determinants for dephosphorylation by the catalytic subunits of phosphatases PP1 and PP2A” (Nature Communications, 2020)
# System: GFP-14-3-3β and its binding proteins
# Test: GFP-14-3-3β co-IP with LC-MS/MS label-free quantification, untreated versus PP1c-treated
# Set-up: species or system human
substance,measurement,setting,value
PP1c: recombinant catalytic subunit of PP1,number of proteins significantly dissociating from 14-3-3,"1 µM recombinant PP1c, 1 h at 30 °C, FDR 0.05, of 108 interacting proteins, three replicates",56 proteins
same,"Difference (log2), PP1 vs untreated","log2 difference, pairwise comparison PP1 vs untreated, label-free quantification, 3 replicates each",5.428
same,number of dissociating proteins with at least one PP1c-regulated phosphorylation site,"mapped onto phosphoproteomic dataset, of 56 proteins",35 proteins
same,14-3-3-protein interactions disrupted,recombinant PP1c,52%
